Where a name gives a salt, the structure may show the parent alone.

One data set concerns QT prolongation. As to conditions: patients treated with Compound (I); related to plasma levels of Compound (I) and metabolite BFB-520; cited from earlier work.
The target of data set [1] is alpha1-adrenergic receptors. Description: Molecular binding profile, alpha1-adrenergic.
Data set [2] concerns negative symptoms in schizophrenia. Description: Phase 2b clinical study, negative symptoms in schizophrenia. As to conditions: both tested doses (32 mg and 64 mg). It counts as in vivo, human.
In another data set the test system is muscarinic receptors. Description: Receptor affinity, muscarinic. It counts as binding.
Data set [3] has as its system BDNF release by primary rat astrocytes. Description: BDNF release by primary rat astrocytes, in situ ELISA. The data set is classed as cell-based. The note with it: 5 days incubation. As to the method: At confluency, astrocytes were plated in 96-well Nunc MaxiSorp surface polystyrene flat-bottom immunoplate precoated with poly-D-lysine during 30 min. and an anti-BDNF monoclonal antibody overnight at 4° C. at a density of 30,000 cells/well. […] At the end of drug treatment, cells were carefully washed with TBST (20 mM Tris-HCl (pH 7.6), 150 mM NaCl, and 0.05% (vol/vol) Tween 20). The plate was then incubated with the polyclonal anti-human BDNF antibody overnight and BDNF quantified. Experimental Protocol-In Situ ELISA on Primary Astrocytes Rat Primary Culture of Astrocytes Rat mixed glial cells were cultured as described by McCarthy et al. Primary rat glial cells were prepared from the cortical of newborn Wistar rats (1 day). […] Medium was changed 3 times per week. At confluency, astrocytes were plated in 96-well Nunc MaxiSorp surface polystyrene flat-bottom immunoplate precoated with poly-D-lysine during 30 min (Sigma, Ref: […], batch: SLBS8705) and an anti-BDNF monoclonal antibody overnight at 4° C. at a density of 30,000 cells/well. (Balkowiec and Katz “Cellular Mechanisms Regulating Activity-Dependent Release of Native Brain-Derived Neurotrophic Factor from Hippocampal Neurons” J. […] At the end of drug treatment, cells were carefully washed with TBST (20 mM Tris-HCl (pH 7.6), 150 mM NaCl, and 0.05% (vol/vol) Tween 20). The plate was then incubated with the polyclonal anti-human BDNF antibody overnight. The amount of specifically bound polyclonal antibody, which when exposed to chromogenic substrate (TMB reagent; Promega), changes color in proportion to the amount of BDNF present in the sample. The color intensity was quantified by measuring the absorbance at 450 nm. BDNF standards, ranging in concentration from 0 to 500 pg/mL were added in parallel wells in the same medium than hippocampal neurons.

Data set [4] has as its system BDNF release by primary hippocampal neurons. Description: BDNF release by primary hippocampal neurons, in situ ELISA. The data set is classed as cell-based, rat. As to conditions: 3 days incubation. Here is the method: Hippocampal neurons were plated in 96-well Nunc MaxiSorp surface polystyrene flat-bottom immunoplate precoated with poly-D-lysine during 30 min an anti-BDNF monoclonal antibody overnight at 4° C. at a density of 70,000 cells/well. […] At the end of drug treatment, cells were carefully washed with TBST (20 mM Tris-HCl (pH 7.6), 150 mM NaCl, and 0.05% (vol/vol) Tween 20). The plate was then incubated with the polyclonal anti-human BDNF antibody overnight and BDNF quantified.
Experimental Protocol—In Situ ELISA on Primary Hippocampal Neurons Hippocampal Neuron Culture
Newborn rats (Wistar rats, Janvier) were deeply anesthetized by hypothermia and decapitated. […] Cells were mechanically dissociated by 3 passages through a 10 ml pipette. Cells were then centrifuged at 515×g for 10 min at 4° C. […] Viable cells were counted in a Neubauer cytometer using the trypan blue exclusion test.
Hippocampal neurons were plated in 96-well Nunc MaxiSorp surface polystyrene flat-bottom immunoplate precoated with poly-D-lysine during 30 min (Sigma, Ref: P7886, batch: SLBS8705) an anti-BDNF monoclonal antibody overnight at 4° C. at a density of 70000 cells/well.
At the end of drug treatment, cells were carefully washed with TBST (20 mM Tris-HCl (pH 7.6), 150 mM NaCl, and 0.05% (vol/vol) Tween 20). The plate was then incubated with the polyclonal anti-human BDNF antibody overnight. The amount of specifically bound polyclonal antibody was then detected through the use of the anti-IgY-horseradish peroxidase tertiary antibody, which when exposed to the chromogenic substrate (TMB reagent; Promega), changes color in proportion to the amount of BDNF present in the sample. The color intensity was quantified by measuring the absorbance at 450 nm.

For data set [5] the following is noted: modified release (MR) formulation of Compound (I) that reduces QT prolongation; cited from earlier work.
The target in another data set is 5-HT2A receptors (Homo sapiens, UniProt P28223). The data set can be described thus: Molecular binding profile, 5-HT2A.
5-HT2A receptors, sequence (P28223 whole entry): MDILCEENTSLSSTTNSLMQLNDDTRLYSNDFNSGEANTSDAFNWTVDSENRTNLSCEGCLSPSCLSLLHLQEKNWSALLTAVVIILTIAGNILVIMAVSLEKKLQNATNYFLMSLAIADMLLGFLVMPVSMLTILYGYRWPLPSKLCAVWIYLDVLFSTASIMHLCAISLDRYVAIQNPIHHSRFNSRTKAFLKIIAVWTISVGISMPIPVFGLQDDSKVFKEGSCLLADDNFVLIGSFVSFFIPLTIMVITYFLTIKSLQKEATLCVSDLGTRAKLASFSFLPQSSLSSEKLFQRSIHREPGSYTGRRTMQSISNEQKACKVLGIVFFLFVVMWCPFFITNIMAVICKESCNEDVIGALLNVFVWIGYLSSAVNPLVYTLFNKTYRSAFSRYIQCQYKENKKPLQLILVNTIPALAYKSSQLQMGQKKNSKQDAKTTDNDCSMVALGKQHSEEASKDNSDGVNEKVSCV
A further data set has as its target sigma2 receptors (Homo sapiens, UniProt Q5BJF2). Description: Molecular binding profile, sigma2.
In a further data set the test system is cholinergic receptors. The data set can be described thus: Receptor affinity, cholinergic. The data set is classed as binding.
A further data set relates to histaminergic receptors. The data set can be described thus: Receptor affinity, histaminergic. The data set is classed as binding.

sigma2 receptors, sequence (Q5BJF2 whole entry): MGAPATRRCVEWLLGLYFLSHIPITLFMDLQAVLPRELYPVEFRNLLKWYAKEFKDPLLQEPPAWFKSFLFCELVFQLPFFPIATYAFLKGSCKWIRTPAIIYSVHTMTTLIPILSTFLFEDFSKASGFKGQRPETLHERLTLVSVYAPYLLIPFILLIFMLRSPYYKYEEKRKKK

As a reminder, the Ki is the dissociation constant of the complex between target and ligand, obtained from inhibition or displacement. A lower Ki goes with higher affinity. As for `O=C(CN1CCC(CN2Cc3ccccc3C2=O)CC1)c1ccc(F)cc1` [Compound (I), 1H-Isoindol-1-one, 2-[[1-[2-(4-Fluorophenyl)-2-oxoethyl]-4-piperidinyl]methyl]-2,3-dihydro-, hydrochloride, hydrate (1:1:2)], the “QT prolongation in patients” value in the data set on QT prolongation is given as “QT prolongation in patients treated with Compound (I) has been observed”. For the same compound, the inhibition constant (Ki) in data set [1] was found to be 14.4 nM; at 5-HT2A receptors, 7.5 nM; at sigma2 receptors it was 8.2 nM. Besides, the “benefit over placebo in improving negative symptoms in schizophrenia” value in data set [2] was “statistically significant benefit”. Moreover, the “affinity for muscarinic receptors” value in the data set with muscarinic receptors is listed as “no affinity”. The “BDNF release astrocytes, % increase of control conditions” value in data set [3] (3 nM) amounted to 6.8%; in [3] (10 nM), 16.2%; in data set [3] (30 nM), 17.1%; in [3] (100 nM), 18.9%; in data set [3] (300 nM) it was 29.5%; in data set [3] (1 μM) it was 16.9%. The “BDNF release hippocampal neurons, % increase of control conditions” value is listed as 11.0% in data set [4] (30 nM), 14.9% in [4] (100 nM), 27.5% in [4] (300 nM) and 24.3% in [4] (1 μM). The “maximum plasma concentration (Cmax)” value in [5] was “below 80 ng/mL”. Besides, at sigma2 receptors (sigma2 versus sigma1), the “selectivity sigma2 versus sigma1 receptors” value turned out to be 30 fold. For the same compound, in the data set with cholinergic receptors, the “affinity for cholinergic receptors” value is “no affinity”. In addition, the “affinity for histaminergic receptors” value with histaminergic receptors is “no affinity”.

Values taken from US11083723B2, “Use of roluperidone to treat negative symptoms and disorders, increase neuroplasticity, and promote neuroprotection” (Minerva Neurosciences, Inc., priority 2018, dated 2021).
